For assay [1], the target named is Kelch domain of human KEAP1 (321-624 aa) (Homo sapiens (Human), UniProt Q14145). The experiment in a line: KEAP1 KELCH ThermoFluor binding assay.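 Also: Ligand-induced melting temperature shift of E. coli-expressed KEAP1 Kelch protein, Kd estimated from concentration-response curves of ΔTm.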 The following applies: KEAP Kelch […], 1,8-ANS, pH 7.0, average of results obtained, read-out: Tf Kd.
Text: The shift in the melting point described as a ΔTm is proportional to the concentration and affinity of the ligand. The compound potency may be compared as a rank order of either ΔTm values at a single compound concentration or in terms of KD values, estimated from concentration response curves.
The protein was expressed in E. coli with 6His tag that was cleaved prior to receipt for use.
Protein (KEAP Kelch) and compound solutions were dispensed into black 384-well polypropylene PCR microplates (Abgene) and overlayed with silicone oil (1 μL, Fluka, type DC 200) to prevent evaporation.
The test system of assay [2] is Glo-Response ARE-luc2P HEK293 cell line. The experiment in a line: ARE luciferase reporter cell-based assay.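 Also: luciferase signal tracks Nrf2 activation of the ARE once compounds disrupt KEAP1-Nrf2 binding, read with One-Glo reagent, DMSO serving as low control.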 The note with it: Homo sapiens, HEK293, 24 h, average of results obtained. On the technique in general: Reporter assays use an easily measured gene product as a stand-in for the process of interest.

The structures appear in SMILES notation.

Sequence of Kelch domain of human KEAP1 (321-624 aa) (Q14145 321-624): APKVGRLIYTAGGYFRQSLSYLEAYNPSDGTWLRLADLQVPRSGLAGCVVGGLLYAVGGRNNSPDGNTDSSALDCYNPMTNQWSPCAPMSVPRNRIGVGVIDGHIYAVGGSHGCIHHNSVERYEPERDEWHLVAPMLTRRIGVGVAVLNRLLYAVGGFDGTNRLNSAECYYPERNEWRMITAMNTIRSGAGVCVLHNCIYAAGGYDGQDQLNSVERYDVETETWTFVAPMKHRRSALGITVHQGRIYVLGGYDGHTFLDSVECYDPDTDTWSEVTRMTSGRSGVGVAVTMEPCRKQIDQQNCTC

For the compound `CCn1nnc2c(C)c([C@H](CC(=O)O)c3ccc(C)c(CN4CC5(COC5)Oc5ncccc5S4(=O)=O)n3)ccc21` (single isomer, unassigned) [Example 241, (*S)-3-(6-((1′,1′-Dioxidospiro[oxetane-3,4′-pyrido[2,3-b][1,4,5]oxathiazepin]-2′(3′H)-yl)methyl)-5-methylpyridin-2-yl)-3-(1-ethyl-4-methyl-1H-benzo[d][1,2,3]triazol-5-yl)propanoic Acid], the dissociation constant Kd in assay [1] is under 1 nM. The concentration giving a half-maximal response (EC50) in assay [2] was 28 nM.

`Cc1ccc([C@H](CC(=O)O)c2ccn3c(C(F)F)nnc3c2C)cc1CN1C[C@]2(C)CCCN2c2ncccc2S1(=O)=O` (single isomer, unassigned) [Example 476, (*S)-3-(3-(Difluoromethyl)-8-methyl-[1,2,4]triazolo[4,3-a]pyridin-7-yl)-3-(4-methyl-3-(((*S)-7a-methyl-5,5-dioxido-7a,8,9,10-tetrahydropyrido[2,3-f]pyrrolo[2,1-d][1,2,5]thiadiazepin-6(7H)-yl)methyl)phenyl)propanoic Acid]: the Kd in assay [1] was under 1 nM. Further, the response in assay [2] was half-maximal at 219 nM (EC50).

For `Cc1ccc(C(CC(=O)O)c2ccn3c(C(F)(F)F)nnc3c2C)cc1CN1C[C@H]2CCCN2c2ccccc2S1(=O)=O` (stereo partly drawn) [Example 265, 3-(3-(((R)-5,5-Dioxido-7a,8,9,10-tetrahydrobenzo[f]pyrrolo[2,1-d][1,2,5]thiadiazepin-6(7H)-yl)methyl)-4-methylphenyl)-3-(8-methyl-3-(trifluoromethyl)-[1,2,4]triazolo[4,3-a]pyridin-7-yl)propanoic Acid], the dissociation constant (Kd) in assay [1] is under 1 nM. The compound further came in with an EC50 in assay [2] of 31.2 nM.

As for `Cc1cnc2c(c1)S(=O)(=O)N(Cc1cc([C@H](c3ccn4c(C5CC5)nnc4c3C)C(C)(C)C(=O)O)ccc1C)CC1(CC1)O2` (single isomer, unassigned) [Example 393, (*R)-3-(3-Cyclopropyl-8-methyl-[1,2,4]triazolo[4,3-a]pyridin-7-yl)-2,2-dimethyl-3-(4-methyl-3-((8′-methyl-1′,1′-dioxidospiro[cyclopropane-1,4′-pyrido[2,3-b][1,4,5]oxathiazepin]-2′(3′H)-yl)methyl)phenyl)propanoic Acid], the Kd in assay [1] is 2100 nM. Further, the response in assay [2] was half-maximal at 4800 nM (EC50).

`Cc1cnc([C@@H](c2ccn3c(C(F)F)nnc3c2C)C(C)(C)C(=O)O)cc1CN1CC2(CC2)Oc2nc(OCCN3CCCCC3)c(C)cc2S1(=O)=O` (single isomer, unassigned) [Example 638, (*S)-3-(3-(Difluoromethyl)-8-methyl-[1,2,4]triazolo[4,3-a]pyridin-7-yl)-2,2-dimethyl-3-(5-methyl-4-((8′-methyl-1′,1′-dioxido-7′-(2-(piperidin-1-yl)ethoxy)spiro[cyclopropane-1,4′-pyrido[2,3-b][1,4,5]oxathiazepin]-2′(3′H)-yl)methyl)pyridin-2-yl)propanoic Acid]: the Kd in assay [1] was under 1 nM. In assay [2], this compound yielded an EC50 of 20.1 nM.

Take `Cc1cnc([C@@H](c2ccn3c(C(F)(F)F)nnc3c2C)C(C)(C)C(=O)O)cc1CN1CC2(CC2)Oc2nc(OCCN3CCCCC3)c(C)cc2S1(=O)=O` (single isomer, unassigned) [Example 592, (*S)-2,2-Dimethyl-3-(8-methyl-3-(trifluoromethyl)-[1,2,4]triazolo[4,3-a]pyridin-7-yl)-3-(5-methyl-4-((8′-methyl-1′,1′-dioxido-7′-(2-(piperidin-1-yl)ethoxy)spiro[cyclopropane-1,4′-pyrido[2,3-b][1,4,5]oxathiazepin]-2′(3′H)-yl)methyl)pyridin-2-yl)propanoic Acid]: the Kd in assay [1] is under 1 nM. Moreover, the concentration giving a half-maximal response (EC50) in assay [2] amounted to 17.6 nM.

Take `Cc1cnc2c(c1)S(=O)(=O)N(Cc1nc([C@H](c3ccn4c(C(F)(F)F)nnc4c3C)C(C)(C)C(=O)O)ccc1C)CC1(CNC1)O2` (single isomer, unassigned) [Example 629, (*R)-2,2-Dimethyl-3-(8-methyl-3-(trifluoromethyl)-[1,2,4]triazolo[4,3-a]pyridin-7-yl)-3-(5-methyl-6-((8′-methyl-1′,1′-dioxidospiro[azetidine-3,4′-pyrido[2,3-b][1,4,5]oxathiazepin]-2′(3′H)-yl)methyl)pyridin-2-yl)propanoic Acid]: the Kd in assay [1] came to 131000 nM. The compound further showed a 50% effective concentration (EC50) in assay [2] of over 20000 nM.

`Cc1cc2c(nc1OCCN1CCCC1)OC1(CC1)CN(Cc1cc([C@H](c3ccc4c(nnn4C4CC4)c3C)C(C)(C)C(=O)O)cnc1C)S2(=O)=O` (single isomer, unassigned) [Example 628, (*S)-3-(1-Cyclopropyl-4-methyl-1H-benzo[d][1,2,3]triazol-5-yl)-2,2-dimethyl-3-(6-methyl-5-((8′-methyl-1′,1′-dioxido-7′-(2-(pyrrolidine-1-yl)ethoxy)spiro[cyclopropane-1,4′-pyrido[2,3-b][1,4,5]]oxathiazepin]-2′(3′H)-yl)methyl)pyridine-3-yl)propanoic Acid]: the Kd in assay [1] came out at 15400 nM. This compound registered an EC50 in assay [2] of over 20000 nM.

As for `Cc1ccc([C@H](CC(=O)O)c2ccn3c(C(F)(F)F)nnc3c2C)cc1CN1CC2(CC2)Oc2nc(NCCCO)ccc2S1(=O)=O` (single isomer, unassigned) [Example 102], the Kd in assay [1] was under 1 nM. In assay [2], this compound gave an EC50 of 696 nM.

For the compound `Cc1ccc([C@H](c2ccn3c(C(F)(F)F)nnc3c2C)C(C)(C)C(=O)O)cc1CN1CC2(CCOCC2)Oc2ncccc2S1(=O)=O` (single isomer, unassigned) [Example 410, (*R)-3-(3-((1′,1′-dioxido-2,3,5,6-tetrahydrospiro[pyran-4,4′-pyrido[2,3-b][1,4,5]oxathiazepin]-2′(3′H)-yl)methyl)-4-methylphenyl)-2,2-dimethyl-3-(8-methyl-3-(trifluoromethyl)-[1,2,4]triazolo[4,3-a]pyridin-7-yl)propanoic Acid], in assay [1], the dissociation constant Kd amounted to 2400 nM. Also, a half-maximal effect in assay [2] (EC50) was put at 1220 nM.

As to `Cc1ccc([C@@H](CC(=O)O)c2ccn3c(C(F)F)nnc3c2C)cc1CN1C[C@@H]2CCCCN2c2ncc(C#N)cc2S1(=O)=O` (single isomer, unassigned) [Example 29, (*R)-3-(3-(((*S)-3-Cyano-5,5-dioxido-7,7a,8,9,10,11-hexahydro-6H-dipyrido[2,1-d:2′,3′-f][1,2,5]thiadiazepin-6-yl)methyl)-4-methylphenyl)-3-(3-(difluoromethyl)-8-methyl-[1,2,4]triazolo[4,3-a]pyridin-7-yl)propanoic Acid], the Kd in assay [1] was under 1 nM. The compound further registered a half-maximal effective concentration (EC50) in assay [2] of 50.9 nM.

Consider `Cc1ccc([C@H](c2ccn3c(C(F)F)nnc3c2C)C(C)(C)C(=O)O)nc1CN1CC2(CCOCC2)Oc2nc(OCCN3CCCC3)c(C)cc2S1(=O)=O` (single isomer, unassigned) [Example 643, (*R)-3-(3-(Difluoromethyl)-8-methyl-[1,2,4]triazolo[4,3-a]pyridin-7-yl)-2,2-dimethyl-3-(5-methyl-6-((8′-methyl-1′,1′-dioxido-7′-(2-(pyrrolidin-1-yl)ethoxy)-2,3,5,6-tetrahydrospiro[pyran-4,4′-pyrido[2,3-b][1,4,5]oxathiazepin]-2′(3′H)-yl)methyl)pyridin-2-yl)propanoic Acid], for which, in assay [1], the equilibrium dissociation constant (Kd) was 2420 nM. It took 9780 nM to reach a half-maximal effect in assay [2] (EC50).

Turning to `Cc1cnc2c(c1)S(=O)(=O)N(Cc1cc([C@@H](c3ccn4c(C(F)(F)F)nnc4c3C)C(C)(C)C(=O)O)ccc1C)C[C@]1(CCOC1)O2` (single isomer, unassigned) [Example 383, (*S)-2,2-Dimethyl-3-(4-methyl-3-(((*S)-8′-methyl-1′,1′-dioxido-4,5-dihydro-2H-spiro[furan-3,4′-pyrido[2,3-b][1,4,5]oxathiazepin]-2′(3′H)-yl)methyl)phenyl)-3-(8-methyl-3-(trifluoromethyl)-[1,2,4]triazolo[4,3-a]pyridin-7-yl)propanoic Acid], in assay [1], the equilibrium dissociation constant (Kd) was under 1 nM. Further, the EC50 in assay [2] was 1.2 nM.

On to `Cc1cnc2c(c1)S(=O)(=O)N(Cc1cc([C@@H](c3ccn4c(C5CC5)nnc4c3C)C(C)(C)C(=O)O)ccc1C)CC1(COC1)O2` (single isomer, unassigned) [Example 622, (*S)-3-(3-Cyclopropyl-8-methyl-[1,2,4]triazolo[4,3-a]pyridin-7-yl)-2,2-dimethyl-3-(4-methyl-3-((8′-methyl-1′,1′-dioxidospiro[oxetane-3,4′-pyrido[2,3-b][1,4,5]oxathiazepin]-2′(3′H)-yl)methyl)phenyl)propanoic Acid], for which the dissociation constant Kd in assay [1] is 2530 nM. The compound also registered a concentration giving a half-maximal response (EC50) in assay [2] of 3230 nM.

On to `Cc1ccc([C@@H](c2ccn3c(C(F)(F)F)nnc3c2C)C(C)(C)C(=O)O)cc1CN1CC2(CCOCC2)Oc2nc(N[C@@H](C)CCO)ccc2S1(=O)=O` (single isomer, unassigned) [Example 121, (*S)-3-(3-((7′-(((S)-4-Hydroxybutan-2-yl)amino)-1′,1′-dioxido-2,3,5,6-tetrahydrospiro[pyran-4,4′-pyrido[2,3-b][1,4,5]oxathiazepin]-2′(3′H)-yl)methyl)-4-methylphenyl)-2,2-dimethyl-3-(8-methyl-3-(trifluoromethyl)-[1,2,4[triazolo[4,3-a]pyridine-7-yl)propanoic Acid], for which the Kd in assay [1] is under 1 nM. In addition, the midpoint of the response in assay [2], the EC50, lay at 157 nM.

For `Cc1ccc(C(CC(=O)O)c2ccn3c(C(F)(F)F)nnc3c2C)cc1CN1C[C@@H]2CCCCN2c2ncccc2S1(=O)=O` (stereo in doubt) [Example 289, 3-(3-(((*S)-5,5-Dioxido-7,7a,8,9,10,11-hexahydro-6H-dipyrido[2,1-d:2′,3′-f][1,2,5]thiadiazepin-6-yl)methyl)-4-methylphenyl)-3-(8-methyl-3-(trifluoromethyl)-[1,2,4]triazolo[4,3-a]pyridin-7-yl)propanoic Acid], the Kd in assay [1] is under 1 nM. The compound further had an EC50 in assay [2] of 19.3 nM.

What is called Kd is a measure of binding affinity in units of concentration. For orientation: EC50 means the concentration that produces a half-maximal response.

These data come from US10947252B2, “Inhibitors of KEAP1-Nrf2 protein-protein interaction” (Janssen Pharmaceutica NV, priority 2018, dated 2021).
